Data from US5021430A, “Certain N-substituted butyramide derivatives” (Ciba-Geigy Corporation, priority 1987, dated 1991).

Target: T1, enkephalinase (Rattus norvegicus, UniProt P07861)
T1 construct: synaptic membrane preparation from rat striatum; from tissue; host or cells: rat striatum, synaptic membrane preparation
T1 sequence (P07861 1-750): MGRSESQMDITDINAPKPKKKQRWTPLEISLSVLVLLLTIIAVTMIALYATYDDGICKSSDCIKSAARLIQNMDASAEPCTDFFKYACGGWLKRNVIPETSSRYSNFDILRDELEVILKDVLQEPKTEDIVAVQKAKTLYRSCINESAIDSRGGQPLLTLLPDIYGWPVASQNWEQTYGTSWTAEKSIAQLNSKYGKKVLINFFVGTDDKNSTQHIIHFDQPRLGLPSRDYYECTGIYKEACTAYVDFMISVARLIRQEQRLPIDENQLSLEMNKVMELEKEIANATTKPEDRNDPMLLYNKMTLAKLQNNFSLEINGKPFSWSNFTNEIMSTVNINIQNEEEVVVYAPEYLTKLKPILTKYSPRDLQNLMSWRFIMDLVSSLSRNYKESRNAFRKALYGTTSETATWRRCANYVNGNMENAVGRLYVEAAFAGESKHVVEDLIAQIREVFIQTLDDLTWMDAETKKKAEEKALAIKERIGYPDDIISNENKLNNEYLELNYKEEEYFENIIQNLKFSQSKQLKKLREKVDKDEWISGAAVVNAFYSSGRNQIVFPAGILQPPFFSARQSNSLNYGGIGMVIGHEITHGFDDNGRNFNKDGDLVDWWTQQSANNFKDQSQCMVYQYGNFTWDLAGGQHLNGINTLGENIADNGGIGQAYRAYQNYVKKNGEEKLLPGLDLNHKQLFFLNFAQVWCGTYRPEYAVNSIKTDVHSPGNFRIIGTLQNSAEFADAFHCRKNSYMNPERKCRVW
Test: enkephalinase inhibitory activity in vitro (inhibition of 3H-Tyr-gly-gly generation from 3H-Leu-enkephalin)
Format: biochemical
Details: rat striatum synaptic membrane preparation, pH 6.5, 3H-Leu-enkephalin, 15 minutes at 30° C., 10^-6 M Bestatin
Method: The enkephalinase inhibitory activity is determined in vitro by an adaptation of the method of Alstein et al. as described in Life Sciences 28, 185 (1981), as follows:
A mixture of a solution of the test compound in distilled water or distilled water and ethanol diluted with pH 6.5 buffer and of a synaptic membrane preparation from rat striatum is incubated at pH 6.5 with ^3 H-Leu-enkephalin for 15 minutes at 30° C., in the presence of 10^-6 M Bestatin (to inhibit aminopeptidase activity). The reaction is stopped by the addition of 30% acetic acid and the reaction product ^3 H-Tyr-gly-gly is separated from unreacted ^3 H-Leu-enkephalin on a Porapak O column followed by a Cu^++-chelex column. The ^3 H-Tyr-gly-gly is counted by liquid scintillation. The amount of ^3 H-Tyr-gly-gly generated in the presence of test compound as compared to control is then calculated. An IC50 value representing the concentration of test compound required for 50% inhibition of ^3 H-Tyr-gly-gly generation is then determined graphically.

Row | SMILES | IC50 (unit inferred) | IC50
1 | O=C(O)[C@H](Cc1ccccc1)C[C@@H](Cc1ccccc1)C(=O)N[C@@H](COCc1ccccc1)C(=O)O [N-[(S,S)-2,4-dibenzyl-4-carboxybutyryl]-O-benzyl-(L)-serine] | ~4 nM | 
2 | O=C(O)[C@H](Cc1ccccc1)C[C@@H](Cc1ccccc1)C(=O)N[C@@H](CSCc1ccccc1)C(=O)O [N-[(S,S)-2,4-dibenzyl-4-carboxybutyryl]-S-benzyl-(L)-cysteine] |  | ~6 nM
3 | O=C(O)[C@H](Cc1ccccc1)C[C@@H](Cc1ccccc1)C(=O)N[C@@H](CCc1ccccc1)C(=O)O [N-[(S,S)-2,4-dibenzyl-4-carboxybutyryl]-(L)-homophenylalanine] |  | ~5 nM
